Measurements from patent publication US4399124A, “Peptides having immunostimulating properties and pharmaceutical compositions containing them” (Institut Pasteur, priority 1979, dated 1983).
Ends that are not written are not given here.

Legend:
Salmonella typhimurium = experiment: Blood purging of Salmonella typhimurium in treated mice; assay type: in vivo; conditions: 0.5 ml of 10^-4 M i.v. 12 h before i.v. 2×10^7 Salmonella typhimurium; NaCl control 1.20 × 10^6 ± 0.28
Protocol: The increase in the bactericidal power of the macrophages always accompanying an increase in their ingestion capacities, it was sought to measure the latter with Salmonella typhimurium which necessitates for its phagocytosis, contrary to Listeria monocytogenes, opsonizing antibodies or a considerable stimulation of the hepatic macrophages. For this, the mice were treated under the same conditions as in the preceding experiment but were inoculated with 2×10^7 Salmonella typhimurium intravenously.

Lewis carcinoma (3LL) = experiment: Resistance of treated mice to Lewis carcinoma (3LL); assay type: in vivo, C57B1/6 mice; conditions: product injected 24 hours after inoculation; for Development of the tumor (difference in thickness between tumor paw and contralateral paw): 10^5 3LL cells into plantar pad, measured 9 days later, NaCl control 326 ± 34; for Number of pulmonary metastases: tumor paw amputated, autopsy 20 days after inoculation, NaCl control 5.3 ± 2.7
Protocol: This tumor is maintained in the laboratory as has been described (Fauve, R. M. and Hevin, B., Ann. Immunol. (Inst. Pasteur), 1977, 128C, 923-928). 3LL cells were cultured in Eagle medium supplemented with 15% of foetal calf serum and, after washing and resuspending in Eagle medium without serum, injected in the proportion of 10^5 cells in a volume of […] into the plantar pad of C57B1/6 mice. The difference between the thickness of the paw where the tumor is developed and the contralateral paw enables the development of the tumor to be evaluated.
In all cases, the products tested were injected 24 hours after inoculation of the malignant cells and, 9 days later, after having measured the thickness of the paws, the paw bearing the tumor was amputated and, 11 days later, namely 20 days after inoculation of the tumors, the animals were autopsied and the number of metastatic pumonary nodules counted. The following table summarizes the results obtained.

Listeria monocytogenes = experiment: Multiplication of Listeria monocytogenes in the liver and the spleen of treated mice; assay type: in vivo; conditions: 0.5 ml of 10^-4 M i.v. 12 h before i.v. 0.3×10^5 Listeria; NaCl control 7 × 10^7 ± 2.4
Protocol: Mice in four batches of 4 animals were treated under the same conditions as previously. Twelve hours later, the mice were all inoculated, intravenously with 0.3×10^5 Listeria monocytogenes. The table below summarizes the results obtained. Again, the mice treated by the active principles show, in their spleen and especially in their liver, a number of Listeria up to 500 times smaller than in the liver of the control animals.

guinea pig ileon = conditions: cited from earlier work

| Substance | Number of Salmonella typhimurium per ml of blood 2 h after infection (Salmonella typhimurium) | Development of the tumor (difference in thickness between tumor paw and contralateral paw) (Lewis carcinoma (3LL)) | Number of pulmonary metastases (Lewis carcinoma (3LL)) | Number of Listeria monocytogenes in the spleen of mice 48 h after infection (Listeria monocytogenes) | Activity with respect to the guinea pig ileon (guinea pig ileon) |
| --- | --- | --- | --- | --- | --- |
| RPPGF [1-5, Arginyl→prolyl→prolyl→glycyl→phenylalanine] | 3.05 × 10^5 ± 1.6 per ml of blood | 284 ± 33 | 0.7 ± 0.11 | 3.1 × 10^7 ± 1 | totally inactive |
| KPPGF [L5, Lysyl→prolyl→prolyl→glycyl→phenylalanine] | 9.35 × 10^4 ± 7.9 per ml of blood | 295 ± 25 | 3.7 ± 2 | 1.8 × 10^7 ± 0.28 | – |
| HPPGF [H5, Histidyl→prolyl→prolyl→glycyl→phenylalanine] | 7.15 × 10^4 ± 0.78 per ml of blood | 272 ± 41 | 0.5 ± 0.10 | 2.4 × 10^7 ± 1.3 | – |
